The values that follow are results of earlier work, collected in patent US20110117175A1, “SWEET ANALGESIC FOR USE IN MEDICAL PROCEDURES OR TREATMENTS” (priority 2009, published 2011).

In series [1] the test system is patients older than infants.
For series [2] the following is noted: minimal amount of sugar used.
Where [3] appears, read: 1 to 2 drops on tongue or pacifier.

Regarding `OC[C@H]1O[C@@](CO)(O[C@H]2O[C@H](CO)[C@@H](O)[C@H](O)[C@H]2O)[C@@H](O)[C@@H]1O` [sucrose], in series [1] (adult patients (studies of adult woman)), the “use as an analgesic” value is recorded as “ineffective”. In series [1] (patients older than infants), the pain relief result is “unsuccessful”. Moreover, the blood glucose levels entry in series [2] was “no increase”. In addition, in the series on infant or neonate (setting [3]), the “duration of infant or neonate response” value is given as “up to 10 minutes” and the “time to infant or neonate response” value is “up to 10 seconds”. Moreover, the pain response result in the series on infant or neonate (infant or neonate, given prior to a painful procedure) is “decreases the pain response”.
